Assays:
Type in all cases: functional
[1] = tested on: KM12; experiment: Growth inhibition of human KM12 cells after 48 hrs by SRB staining method; settings: KM12, 48 h
[2] = tested on: DU-145; experiment: Growth inhibition of human DU145 cells after 48 hrs by SRB staining method; settings: DU-145, 48 h
[3] = Growth inhibition of human HS 578T cells after 48 hrs by SRB staining method
[4] = tested on: ACHN; experiment: Growth inhibition of human ACHN cells after 48 hrs by SRB staining method
[5] = tested on: NCI-H23; experiment: Growth inhibition of human NCI-H23 cells after 48 hrs by SRB staining method; settings: NCI-H23, 48 h
[6] = tested on: NCI/ADR-RES; experiment: Growth inhibition of human NCI/ADR-RES cells after 48 hrs by SRB staining method
[7] = tested on: RXF 393; experiment: Growth inhibition of human RXF393 cells after 48 hrs by SRB staining method; settings: RXF 393, 48 h
[8] = tested on: SK-OV-3; experiment: Growth inhibition of human SKOV3 cells after 48 hrs by SRB staining method; settings: SK-OV-3, 48 h
[9] = tested on: UO-31; experiment: Growth inhibition of human UO31 cells after 48 hrs by SRB staining method; settings: UO-31, 48 h
[10] = tested on: SNB-19; experiment: Growth inhibition of human SNB19 cells after 48 hrs by SRB staining method; settings: SNB-19, 48 h
[11] = tested on: UACC-62; experiment: Growth inhibition of human UACC62 cells after 48 hrs by SRB staining method; settings: UACC-62, 48 h
[12] = tested on: A549; experiment: Growth inhibition of human A549 cells after 48 hrs by SRB staining method; settings: A549, 48 h
[13] = tested on: SK-MEL-2; experiment: Growth inhibition of human SK-MEL-2 cells after 48 hrs by SRB staining method; settings: SK-MEL-2, 48 h
[14] = tested on: SW-620; experiment: Growth inhibition of human SW620 cells after 48 hrs by SRB staining method; settings: SW-620, 48 h
[15] = tested on: NCI-H460; experiment: Growth inhibition of human NCI-H460 cells after 48 hrs by SRB staining method; settings: NCI-H460, 48 h
[16] = tested on: OVCAR-8; experiment: Growth inhibition of human OVCAR8 cells after 48 hrs by SRB staining method; settings: OVCAR-8, 48 h
[17] = tested on: NCI-H226; experiment: Growth inhibition of human NCI-H226 cells after 48 hrs by SRB staining method; settings: NCI-H226, 48 h
[18] = tested on: RPMI-8226; experiment: Growth inhibition of human RPMI8226 cells after 48 hrs by SRB staining method; settings: RPMI-8226, 48 h
[19] = tested on: NCI-H322M; experiment: Growth inhibition of human NCI-H322M cells after 48 hrs by SRB staining method
[20] = tested on: SF-268; experiment: Growth inhibition of human SF268 cells after 48 hrs by SRB staining method; settings: SF-268, 48 h
[21] = tested on: LOX IMVI; experiment: Growth inhibition of human LOX IMVI cells after 48 hrs by SRB staining method
[22] = tested on: HCT-15; experiment: Growth inhibition of human HCT15 cells after 48 hrs by SRB staining method; settings: HCT-15, 48 h
[23] = tested on: EKVX; experiment: Growth inhibition of human EKVX cells after 48 hrs by SRB staining method
[24] = tested on: SK-MEL-28; experiment: Growth inhibition of human SK-MEL-28 cells after 48 hrs by SRB staining method; settings: SK-MEL-28, 48 h
[25] = tested on: 786-0; experiment: Growth inhibition of human 786-0 cells after 48 hrs by SRB staining method; settings: 786-0, 48 h
[26] = tested on: U-251; experiment: Growth inhibition of human U251 cells after 48 hrs by SRB staining method; settings: U-251, 48 h
[27] = tested on: NCI-H522; experiment: Growth inhibition of human NCI-H522 cells after 48 hrs by SRB staining method; settings: NCI-H522, 48 h
[28] = tested on: SK-MEL-5; experiment: Growth inhibition of human SK-MEL-5 cells after 48 hrs by SRB staining method; settings: SK-MEL-5, 48 h
[29] = tested on: HOP-62; experiment: Growth inhibition of human HOP62 cells after 48 hrs by SRB staining method; settings: HOP-62, 48 h
[30] = read-out: pLC50 (the source's name) (converted)

Q: Which GI50 [1] does the source give for `CCOC(=O)CCC(NC(=O)c1ccc(Nc2nc3cc(N)cc(N)c3nc2-c2ccccc2)cc1)C(=O)OCC` (stereo unspecified) here?
A: Its GI50 is 28.2 µM.

Q: And the LC50 [1]?
A: The LC50 was over 100 µM.

Q: What about the TGI ([1]; read-out: pTGI (converted)) of the same compound?
A: Its TGI is over 100 µM.

Q: And the GI50 [2]?
A: The GI50 was 44.7 µM.

Q: What about the CC50 [2, 30] of the same compound?
A: The CC50 was over 100 µM.

Q: What about the TGI ([2]; read-out: pTGI (converted)) of the same compound?
A: The TGI was over 100 µM.

Q: What about the GI50 [3] of the same compound?
A: Its GI50 is 33.9 µM.

Q: And the CC50 [3, 30]?
A: The CC50 was over 100 µM.

Q: What about the TGI ([3]; read-out: pTGI (converted)) of the same compound?
A: Its TGI is 75.9 µM.

Q: What about the GI50 [4] of the same compound?
A: The GI50 was 12.9 µM.

Q: And the CC50 [4, 30]?
A: Its CC50 is over 100 µM.

Q: And the TGI ([4]; read-out: pTGI (converted))?
A: Its TGI is 46.8 µM.

Q: What about the GI50 [5] of the same compound?
A: Its GI50 is 18.6 µM.

Q: What about the LC50 [5] of the same compound?
A: The LC50 was over 100 µM.

Q: What about the TGI ([5]; read-out: pTGI (converted)) of the same compound?
A: The TGI was 55 µM.

Q: What about the GI50 [6] of the same compound?
A: Its GI50 is 19.5 µM.

Q: What about the CC50 [6, 30] of the same compound?
A: The CC50 was over 100 µM.

Q: What about the TGI ([6]; read-out: pTGI (converted)) of the same compound?
A: The TGI was 63.1 µM.

Q: What about the GI50 [7] of the same compound?
A: Its GI50 is 24.5 µM.

Q: What about the TGI ([7]; read-out: pTGI (converted)) of the same compound?
A: Its TGI is 85.1 µM.

Q: And the GI50 [8]?
A: The GI50 was 21.9 µM.

Q: And the CC50 [8, 30]?
A: Its CC50 is over 100 µM.

Q: What about the TGI ([8]; read-out: pTGI (converted)) of the same compound?
A: Its TGI is 47.9 µM.

Q: What about the GI50 [9] of the same compound?
A: Its GI50 is 21.9 µM.

Q: And the CC50 [9, 30]?
A: Its CC50 is over 100 µM.

Q: And the TGI ([9]; read-out: pTGI (converted))?
A: The TGI was 75.9 µM.

Q: What about the GI50 [10] of the same compound?
A: Its GI50 is 21.4 µM.

Q: And the LC50 [10]?
A: Its LC50 is over 100 µM.

Q: And the TGI ([10]; read-out: pTGI (converted))?
A: Its TGI is over 100 µM.

Q: And the GI50 [11]?
A: The GI50 was 3.55 µM.

Q: And the LC50 [11]?
A: The LC50 was 64.6 µM.

Q: And the TGI ([11]; read-out: pTGI (converted))?
A: Its TGI is 14.5 µM.

Q: And the GI50 [12]?
A: The GI50 was 20 µM.

Q: And the CC50 [12, 30]?
A: Its CC50 is over 100 µM.

Q: And the TGI ([12]; read-out: pTGI (converted))?
A: Its TGI is over 100 µM.

Q: And the GI50 [13]?
A: Its GI50 is 7.76 µM.

Q: And the LC50 [13]?
A: Its LC50 is over 100 µM.

Q: What about the TGI ([13]; read-out: pTGI (converted)) of the same compound?
A: Its TGI is 74.1 µM.

Q: What about the GI50 [14] of the same compound?
A: The GI50 was 40.7 µM.

Q: And the CC50 [14, 30]?
A: The CC50 was over 100 µM.

Q: What about the TGI ([14]; read-out: pTGI (converted)) of the same compound?
A: The TGI was over 100 µM.

Q: And the GI50 [15]?
A: Its GI50 is 8.51 µM.

Q: What about the LC50 (concentration killing 50% of cells) [15] of the same compound?
A: Its LC50 (concentration killing 50% of cells) is over 100 µM.

Q: What about the TGI ([15]; read-out: pTGI (converted)) of the same compound?
A: Its TGI is 47.9 µM.

Q: What about the GI50 [16] of the same compound?
A: The GI50 was 33.9 µM.

Q: What about the CC50 [16, 30] of the same compound?
A: The CC50 was over 100 µM.

Q: What about the TGI ([16]; read-out: pTGI (converted)) of the same compound?
A: Its TGI is over 100 µM.

Q: What about the GI50 [17] of the same compound?
A: Its GI50 is 26.9 µM.

Q: What about the LC50 [17] of the same compound?
A: Its LC50 is over 100 µM.

Q: What about the TGI ([17]; read-out: pTGI (converted)) of the same compound?
A: The TGI was 55 µM.

Q: What about the GI50 [18] of the same compound?
A: The GI50 was 3.16 µM.

Q: What about the CC50 [18, 30] of the same compound?
A: The CC50 was over 100 µM.

Q: What about the TGI ([18]; read-out: pTGI (converted)) of the same compound?
A: The TGI was over 100 µM.

Q: And the GI50 [19]?
A: The GI50 was 41.7 µM.

Q: And the LC50 [19]?
A: The LC50 was over 100 µM.

Q: And the TGI ([19]; read-out: pTGI (converted))?
A: The TGI was over 100 µM.

Q: What about the GI50 [20] of the same compound?
A: Its GI50 is 23.4 µM.

Q: What about the CC50 [20, 30] of the same compound?
A: The CC50 was over 100 µM.

Q: What about the TGI ([20]; read-out: pTGI (converted)) of the same compound?
A: Its TGI is over 100 µM.

Q: What about the GI50 [21] of the same compound?
A: Its GI50 is 8.51 µM.

Q: What about the LC50 [21] of the same compound?
A: Its LC50 is over 100 µM.

Q: What about the TGI ([21]; read-out: pTGI (converted)) of the same compound?
A: Its TGI is over 100 µM.

Q: What about the GI50 [22] of the same compound?
A: Its GI50 is 23.4 µM.

Q: What about the LC50 [22] of the same compound?
A: Its LC50 is over 100 µM.

Q: And the TGI ([22]; read-out: pTGI (converted))?
A: The TGI was over 100 µM.

Q: What about the GI50 [23] of the same compound?
A: The GI50 was 28.8 µM.

Q: What about the CC50 [23, 30] of the same compound?
A: Its CC50 is over 100 µM.

Q: What about the TGI ([23]; read-out: pTGI (converted)) of the same compound?
A: Its TGI is over 100 µM.

Q: And the GI50 [24]?
A: Its GI50 is 1.51 µM.

Q: And the CC50 [24, 30]?
A: Its CC50 is 5.89 µM.

Q: What about the TGI ([24]; read-out: pTGI (converted)) of the same compound?
A: Its TGI is 3.02 µM.

Q: What about the GI50 [25] of the same compound?
A: The GI50 was 17.8 µM.

Q: And the CC50 [25, 30]?
A: The CC50 was 77.6 µM.

Q: What about the TGI ([25]; read-out: pTGI (converted)) of the same compound?
A: The TGI was 37.2 µM.

Q: What about the GI50 [26] of the same compound?
A: The GI50 was 20 µM.

Q: And the LC50 (50% lethal concentration) [26]?
A: The LC50 (50% lethal concentration) was 95.5 µM.

Q: What about the TGI ([26]; read-out: pTGI (converted)) of the same compound?
A: The TGI was 43.7 µM.

Q: What about the GI50 [27] of the same compound?
A: The GI50 was 27.5 µM.

Q: And the LC50 [27]?
A: The LC50 was over 100 µM.

Q: And the TGI ([27]; read-out: pTGI (converted))?
A: Its TGI is over 100 µM.

Q: What about the GI50 [28] of the same compound?
A: Its GI50 is 6.61 µM.

Q: And the LC50 [28]?
A: Its LC50 is over 100 µM.

Q: And the TGI ([28]; read-out: pTGI (converted))?
A: The TGI was 31.6 µM.

Q: And the GI50 [29]?
A: Its GI50 is 19.5 µM.

Q: What about the LC50 [29] of the same compound?
A: The LC50 was 81.3 µM.

Q: What about the TGI ([29]; read-out: pTGI (converted)) of the same compound?
A: Its TGI is 39.8 µM.

From ChEMBL document CHEMBL1149774, “Synthesis of N-(5,7-diamino-3-phenyl-quinoxalin-2-yl)-3,4,5-substituted anilines and N-[4[(5,7-diamino-3-phenylquinoxalin-2-yl)amino]benzoyl]-l-glutamic acid diethyl ester: evaluation of in vitro anti-cancer and anti-folate activities” (Eur J Med Chem, 2008)
